The subject of assay [1] is CHO cells expressing human cloned SST-R5. The experiment in a line: In-vitro cell-growth inhibition. Type of assay: cell-based. As to the method:
Pharmacological evaluation of growth inhibition was performed utilizing CHO cells expressing human cloned SST-R5.

The subject of assay [2] is somatostatin receptors (SSTR-1, 2, 3, 4 or 5). The experiment in a line: Somatostatin receptor subtype selectivity of binding. Also noted: species or system human. As to conditions: in words. As for the experimental part: (§1) The somatostatin analogs were tested for their potency in inhibition of the binding of ^125I-Tyr^11-SRIF (based on the method described by Raynor et. al., Molecular Pharmacology, 1993, 43, 838-844) to membrane preparations expressing the transmembranal somatostatin receptors (SSTR-1, 2, 3, 4 or 5). The receptor preparations used for these tests were either from the cloned human receptors selectively and stably expressed in Chinese Hamster Ovary (CHO) cells or from cell lines naturally expressing the SSTRs. Typically, cell membranes were homogenated in Tris buffer in the presence of protease inhibitors and incubated for 30-40 minutes with ^125I-Tyr^11-SRIF with different concentrations of the tested sample. The binding reactions were filtered, the filters were washed and the bound radioactivity was counted in gamma counter. Non specific binding was defined as the radioactivity remaining bound in the presence of 1 μM unlabeled SRIF-14.
(§2) In order to validate positive signals of the binding tests, and to eliminate non-specific signals, samples of irrelevant peptides, such as GnRH, that were synthesized and handled using the same procedures, were tested in the same assays as negative control samples. These samples had no binding activity in any of the assays. Results are shown below in Tables 5 and 6 and FIG. 1.

Assay [3] has as its target T1, SSTR-3 (Homo sapiens, UniProt P32745).
T1 construct: expressed in transfected cells
The experiment in a line: Inhibition of 125I-Tyr11-SRIF binding to membrane preparations expressing SSTR-3. To be noted: read-out: Percent inhibition of SRIF-14 binding. As for the experimental part:
as §1, with “Typically, cell membranes were homogenated in Tris buffer in the presence of protease inhibitors and incubated for 30-40 minutes with ^125I-Tyr^11-SRIF with different concentrations of the tested sample.” left out
as §2

Assay [4] has as its target T2, SSTR-4 (Homo sapiens, UniProt P31391).
T2 construct: expressed in transfected cells
The experiment in a line: Inhibition of 125I-Tyr11-SRIF binding to membrane preparations expressing SSTR-4. As to conditions: SSTR-R4, read-out: Percent inhibition of SRIF-14 binding. As for the experimental part: as §1, §2

Assay [5] has as its system other G-protein coupled receptors. The experiment in a line: Binding to non-somatostatin G-protein coupled receptors. To be noted: screening vs. Octreotide and SRIF. The source says:
This characteristic is of great advantageous because binding to non-somatostatin receptors could cause potential adverse effects in the body.
(§3) NovaScreen (Hanover, Md.) performed an assessment for nonspecific binding to various G-protein coupled receptor families. Binding studies to Neurokinin, Opiate and Muscarinic receptors were based on a comparison between the native hormone Somatostatin, Ocreotide and PTR 3173.

The test system of assay [6] is insulin release. The experiment in a line: In-vivo effect on insulin release. Also noted: species or system Wistar male rats. As to the method:
Insulin stimulation was induced by IV bolus administration of D-glucose to overnight fasted rats.
An in-vivo determination of insulin release as a result of peptide administration was measured in Wistar male rats. […] Time course profiles for […] release under constant experimental conditions were measured.
Male Wistar rats were fasted overnight. Animals were anesthetized with Nembutal (IP, 60 mg/kg). Ten minutes after anesthesia, drugs were administrated S.C. at 0.01-100 microgram/kg dose 30 minutes before stimulation of insulin secretion performed by I.V. administration of 0.5 g/kg of D-glucose, 5 minutes before blood collection from abdominal Vena-cava. Hormone levels wer measured by RIA.

The test system of assay [7] is Opiate receptors. The experiment in a line: Guinea-Pig Ileum met-Enkephalin-evoked twitch contraction. To be noted: preliminary results.
Assay [8] has as its system Opiate receptors. The experiment in a line: NovaScreen nonspecific binding, Opiate receptors. To be noted: tested at 100 nM; FIG. 2.
Text: as §3

Entries after “also recorded” stand apart in the source; their conditions may differ.

T1 sequence (P32745 whole entry): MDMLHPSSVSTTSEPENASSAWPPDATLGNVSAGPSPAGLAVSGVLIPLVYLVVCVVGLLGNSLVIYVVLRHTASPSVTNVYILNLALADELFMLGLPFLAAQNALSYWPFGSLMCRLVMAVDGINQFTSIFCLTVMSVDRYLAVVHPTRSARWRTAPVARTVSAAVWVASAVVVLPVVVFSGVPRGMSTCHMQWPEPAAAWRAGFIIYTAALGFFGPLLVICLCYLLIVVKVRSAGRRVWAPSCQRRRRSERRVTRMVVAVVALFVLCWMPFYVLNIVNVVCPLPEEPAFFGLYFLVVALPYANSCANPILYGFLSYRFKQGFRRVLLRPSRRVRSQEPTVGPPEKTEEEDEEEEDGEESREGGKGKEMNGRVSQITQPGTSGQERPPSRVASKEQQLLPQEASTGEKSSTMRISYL
T2 sequence (P31391 whole entry): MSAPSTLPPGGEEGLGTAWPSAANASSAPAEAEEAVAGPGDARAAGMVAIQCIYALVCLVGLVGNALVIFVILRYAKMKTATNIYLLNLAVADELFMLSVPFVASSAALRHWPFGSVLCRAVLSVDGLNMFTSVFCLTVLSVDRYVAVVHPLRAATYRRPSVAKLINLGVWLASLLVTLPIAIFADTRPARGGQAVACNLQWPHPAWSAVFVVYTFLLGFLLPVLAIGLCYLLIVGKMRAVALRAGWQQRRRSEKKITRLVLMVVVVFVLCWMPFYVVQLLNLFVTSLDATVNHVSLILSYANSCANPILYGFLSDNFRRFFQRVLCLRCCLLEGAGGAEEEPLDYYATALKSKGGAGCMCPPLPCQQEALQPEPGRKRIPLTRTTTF

With `C[C@@H](O)[C@@H]1NC(=O)[C@H](CCCCN)NC(=O)[C@@H](Cc2c[nH]c3ccccc23)NC(=O)[C@H](Cc2c[nH]c3ccccc23)NC(=O)[C@H](Cc2ccccc2)NC(=O)CCCNC(=O)CCCN(CC(N)=O)C(=O)[C@H](Cc2ccccc2)NC1=O` [PTR 3173, GABA*-Phe-Trp-(D)Trp-Lys-Thr-Phe-Gly(C3)-X], the growth inhibition result in assay [1] was “significant growth inhibition; also recorded: considerably higher potency of growth inhibition compared to the native hormone and the drug Octreotide”. The “somatostatin receptor subtype selectivity” value is “selective for receptors 2 and 5; also recorded: improved selectivity of binding to the SST receptor subtype SST-R2 and SST-R5” in assay [2]; “SST-R2+SST-R5” in assay [2] (listed as PTR-3173). Besides, the inhibition – broadly, the relative decrease from the control value, in per cent – at 10 pM in assay [3] is 2%; in assay [4] (10^−11 M), 0%. The inhibition at 0.0001 µM in assay [3] was 1%; in assay [4] (10^−10 M), 0%. In addition, the inhibition at 0.001 µM in assay [3] amounted to 1%; in assay [4] (10^−9 M), 0%. For the same compound, the inhibition at 0.01 µM in assay [3] was 4%; in assay [4] (10^−8 M), 0%. In addition, the inhibition at 0.1 µM in assay [3] amounted to 50%; in assay [4] (10^−7 M), 5%. In addition, the inhibition at 1 µM in assay [3] was 89%; in assay [4] (10^−6 M), 5%. Also, the “binding to other G-protein coupled receptors” value in assay [5] is “binds significantly less other G-protein coupled receptors than Octreotide”. The “effect on insulin release” value is “inactive on insulin” in assay [6] (100 micrograms per kilogram, D-glucose stimulation, FIG. 5a) and “no appreciable effect on insulin” in assay [6] (dose of up to 1 milligram per kilogram, FIG. 5b). For the same compound, the “Insulin ID50” value in assay [6] (Table 4, physiological selectivity) was more than 1000 µg/kg. The “effect on insulin (general statement)” value in assay [6] (in words, no dose stated) is reported as “lacks the disadvantages of Octreotide such as inhibition of Insulin secretion; also recorded: no considerable effect on insulin”. Also, the GH/Insulin in assay [6] (ratio of ID50 values, Table 4) is recorded as >10,000. For the same compound, the “effect on met-Enkephalin-evoked twitch contraction” value in assay [7] was “did not affect met-Enkephalin-evoked twitch contraction”. In addition, the “binding to Opiate receptors” value in assay [8] was “did not bind”.

For the origin of these results see patent US6930088B2, “Conformationally constrained backbone cyclized somatostatin analogs” (Peptor Ltd., priority 1998, dated 2005).
